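96-well plates; 48 h exposure; 5 concentrations. Endpoints by linear interpolation between flanking doses. Not reached: highest tested concentration assigned. GI50 = concentration required for 50% inhibition of growth. TGI: concentration producing complete growth inhibition.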
Tests used:
Experiment in all cases: NCI anticancer screen, dose series, 48 h
LOX IMVI melanoma = tested on: LOX IMVI melanoma
NCI-H226 lung = tested on: NCI-H226 lung
SK-MEL-5 melanoma = tested on: SK-MEL-5 melanoma
HCC-2998 colon = tested on: HCC-2998 colon
NCI-H522 lung = tested on: NCI-H522 lung
HS 578T breast = tested on: HS 578T breast
NCI/ADR-RES ovarian = tested on: NCI/ADR-RES ovarian
SF-295 CNS = tested on: SF-295 CNS
CCRF-CEM leukemia = tested on: CCRF-CEM leukemia
MOLT-4 leukemia = tested on: MOLT-4 leukemia
ACHN renal = tested on: ACHN renal
RXF 393 renal = tested on: RXF 393 renal
RPMI-8226 leukemia = tested on: RPMI-8226 leukemia
BT-549 breast = tested on: BT-549 breast
KM12 colon = tested on: KM12 colon
MDA-MB-231 breast = tested on: MDA-MB-231 breast
CAKI-1 renal = tested on: CAKI-1 renal
HCT-116 colon = tested on: HCT-116 colon
786-0 renal = tested on: 786-0 renal
HT29 colon = tested on: HT29 colon
UACC-257 melanoma = tested on: UACC-257 melanoma
OVCAR-5 ovarian = tested on: OVCAR-5 ovarian
K-562 leukemia = tested on: K-562 leukemia
A498 renal = tested on: A498 renal
DU-145 prostate = tested on: DU-145 prostate
MDA-MB-435 = tested on: MDA-MB-435
PC-3 prostate = tested on: PC-3 prostate
UACC-62 melanoma = tested on: UACC-62 melanoma
T-47D breast = tested on: T-47D breast
SW-620 colon = tested on: SW-620 colon
U251 CNS = tested on: U251 CNS
SF-539 CNS = tested on: SF-539 CNS
SF-268 CNS = tested on: SF-268 CNS
SK-MEL-2 melanoma = tested on: SK-MEL-2 melanoma
SK-MEL-28 melanoma = tested on: SK-MEL-28 melanoma
EKVX NSCLC = tested on: EKVX NSCLC
OVCAR-4 ovarian = tested on: OVCAR-4 ovarian
OVCAR-8 ovarian = tested on: OVCAR-8 ovarian
A549 NSCLC = tested on: A549 NSCLC
SNB-19 CNS = tested on: SNB-19 CNS
NCI-H23 lung = tested on: NCI-H23 lung
SK-OV-3 ovarian = tested on: SK-OV-3 ovarian
HCT-15 colon = tested on: HCT-15 colon
IGROV1 ovarian = tested on: IGROV1 ovarian
NCI-H460 lung = tested on: NCI-H460 lung
UO-31 renal = tested on: UO-31 renal
MCF7 breast = tested on: MCF7 breast
MALME-3M melanoma = tested on: MALME-3M melanoma
SN12C renal = tested on: SN12C renal
HOP-62 NSCLC = tested on: HOP-62 NSCLC
COLO 205 colon = tested on: COLO 205 colon
HOP-92 NSCLC = tested on: HOP-92 NSCLC
M14 melanoma = tested on: M14 melanoma
OVCAR-3 ovarian = tested on: OVCAR-3 ovarian
TK-10 renal = tested on: TK-10 renal

Structure (SMILES): C=C1C(=O)O[C@H]2[C@H]1CC/C(COC(=O)CSCSCC(=O)OC/C1=C/CC[C@@]3(C)O[C@H]3[C@H]3OC(=O)C(=C)[C@@H]3CC1)=C\CC[C@@]1(C)O[C@@H]21
- GI50 (LOX IMVI melanoma): 1300 nM
- TGI (LOX IMVI melanoma): 2650 nM
- GI50 (NCI-H226 lung): 3510 nM
- TGI (NCI-H226 lung): 13900 nM
- GI50 (SK-MEL-5 melanoma): 1950 nM
- TGI (SK-MEL-5 melanoma): 4330 nM
- GI50 (HCC-2998 colon): 1800 nM
- TGI (HCC-2998 colon): 3460 nM
- GI50 (NCI-H522 lung): 1480 nM
- TGI (NCI-H522 lung): 3200 nM
- GI50 (HS 578T breast): 4880 nM
- TGI (HS 578T breast): 64200 nM
- GI50 (NCI/ADR-RES ovarian): 3250 nM
- TGI (NCI/ADR-RES ovarian): 12300 nM
- GI50 (SF-295 CNS): 1850 nM
- TGI (SF-295 CNS): 4460 nM
- GI50 (CCRF-CEM leukemia): 304 nM
- TGI (CCRF-CEM leukemia): 1470 nM
- GI50 (MOLT-4 leukemia): 505 nM
- TGI (MOLT-4 leukemia): 3090 nM
- GI50 (ACHN renal): 1330 nM
- TGI (ACHN renal): 2600 nM
- GI50 (RXF 393 renal): 1230 nM
- TGI (RXF 393 renal): 2830 nM
- GI50 (RPMI-8226 leukemia): 597 nM
- TGI (RPMI-8226 leukemia): 3710 nM
- GI50 (BT-549 breast): 1470 nM
- TGI (BT-549 breast): 2910 nM
- GI50 (KM12 colon): 1930 nM
- TGI (KM12 colon): 3770 nM
- GI50 (MDA-MB-231 breast): 1390 nM
- TGI (MDA-MB-231 breast): 3000 nM
- GI50 (CAKI-1 renal): 1740 nM
- TGI (CAKI-1 renal): 3320 nM
- GI50 (HCT-116 colon): 590 nM
- TGI (HCT-116 colon): 1930 nM
- GI50 (786-0 renal): 1410 nM
- TGI (786-0 renal): 2890 nM
- GI50 (HT29 colon): 1370 nM
- TGI (HT29 colon): 2820 nM
- GI50 (UACC-257 melanoma): 1890 nM
- TGI (UACC-257 melanoma): 4670 nM
- GI50 (OVCAR-5 ovarian): 1950 nM
- TGI (OVCAR-5 ovarian): 3920 nM
- GI50 (K-562 leukemia): 554 nM
- TGI (K-562 leukemia): > 100000 nM
- GI50 (A498 renal): 3830 nM
- TGI (A498 renal): 14800 nM
- GI50 (DU-145 prostate): 1660 nM
- TGI (DU-145 prostate): 3190 nM
- GI50 (MDA-MB-435): 2000 nM
- TGI (MDA-MB-435): 4560 nM
- GI50 (PC-3 prostate): 1860 nM
- TGI (PC-3 prostate): 4140 nM
- GI50 (UACC-62 melanoma): 1880 nM
- TGI (UACC-62 melanoma): 4030 nM
- GI50 (T-47D breast): 1530 nM
- TGI (T-47D breast): 3700 nM
- GI50 (SW-620 colon): 1410 nM
- TGI (SW-620 colon): 3260 nM
- GI50 (U251 CNS): 1700 nM
- TGI (U251 CNS): 3850 nM
- GI50 (SF-539 CNS): 1470 nM
- TGI (SF-539 CNS): 2890 nM
- GI50 (SF-268 CNS): 1790 nM
- TGI (SF-268 CNS): 4310 nM
- GI50 (SK-MEL-2 melanoma): 2290 nM
- TGI (SK-MEL-2 melanoma): 5240 nM
- GI50 (SK-MEL-28 melanoma): 1630 nM
- TGI (SK-MEL-28 melanoma): 3190 nM
- GI50 (EKVX NSCLC): 1600 nM
- TGI (EKVX NSCLC): 3380 nM
- GI50 (OVCAR-4 ovarian): 2680 nM
- TGI (OVCAR-4 ovarian): 8740 nM
- GI50 (OVCAR-8 ovarian): 1930 nM
- TGI (OVCAR-8 ovarian): 4960 nM
- GI50 (A549 NSCLC): 2440 nM
- TGI (A549 NSCLC): 6230 nM
- GI50 (SNB-19 CNS): 2440 nM
- TGI (SNB-19 CNS): 5990 nM
- GI50 (NCI-H23 lung): 1830 nM
- TGI (NCI-H23 lung): 4010 nM
- GI50 (SK-OV-3 ovarian): 5100 nM
- TGI (SK-OV-3 ovarian): 16500 nM
- GI50 (HCT-15 colon): 1330 nM
- TGI (HCT-15 colon): 2830 nM
- GI50 (IGROV1 ovarian): 1780 nM
- TGI (IGROV1 ovarian): 4460 nM
- GI50 (NCI-H460 lung): 2100 nM
- TGI (NCI-H460 lung): 4860 nM
- GI50 (UO-31 renal): 1270 nM
- TGI (UO-31 renal): 2560 nM
- GI50 (MCF7 breast): 642 nM
- TGI (MCF7 breast): 2250 nM
- GI50 (MALME-3M melanoma): 1580 nM
- TGI (MALME-3M melanoma): 3290 nM
- GI50 (SN12C renal): 1650 nM
- TGI (SN12C renal): 3850 nM
- GI50 (HOP-62 NSCLC): 2590 nM
- TGI (HOP-62 NSCLC): 8380 nM
- GI50 (COLO 205 colon): 1340 nM
- TGI (COLO 205 colon): 3060 nM
- GI50 (HOP-92 NSCLC): 1390 nM
- TGI (HOP-92 NSCLC): 2850 nM
- GI50 (M14 melanoma): 1550 nM
- TGI (M14 melanoma): 3220 nM
- GI50 (OVCAR-3 ovarian): 1200 nM
- TGI (OVCAR-3 ovarian): 2540 nM
- GI50 (TK-10 renal): 1920 nM
- TGI (TK-10 renal): 3670 nM
